In the RepoRT retention time repository (doi:10.1021/acs.analchem.2c02893):

Assay: RP, Thermo Scientific Acclaim RSLC 120 C18, 100 × 2.1 mm, 2.2 µm, 30 °C, 0.2 mL/min, estimated dead time 1.1 min; A: 90% water + 10% methanol + 0.01% formic acid + 5 mM ammonium formate, pH 3.61; B: methanol + 0.01% formic acid + 5 mM ammonium formate, pH 3.61; gradient (min/%B) 0/1 1/1 2/39 13/99.9 15/99.9 15.1/1 20.1/1
Conditions: stereoisomer not certain

In order of falling LC retention time:
1. COC1CC(OC2C(C)OC(OC3C(C)=CCC4CC(CC5(CCC(C)C(C(C)C)O5)O4)OC(=O)C4C=C(C)C(O)C5OCC(=CC=CC3C)C45O)CC2OC)OC(C)C1O (stereo unspecified) [Ivermectin B1b]  14.2 min
2. CCCCCn1c(O)c(C(=O)c2cccc3ccccc23)c2ccccc21 [JWH-018-M-2-OH-Ind]  14 min
3. CCCCCCCCCCCCOCCOCCOCCOCCO [Tetraethylene glycol monododecyl ether]  13.5 min
4. CCCCCCC(C)(C)c1ccc(C2CCCC(O)C2)c(O)c1 (stereo unspecified) [CP 47-497]  13.1 min
5. O=C(c1cccc2ccccc12)c1cn(CC2CCCCC2)c2ccccc12 [NE-CHMIMO]  13 min
6. CC1(C)C(C(=O)c2cn(CCCC(F)(F)F)c3ccccc23)C1(C)C [XLR-12]  12 min
7. CCOC(=O)CCN(SN(C)C(=O)Oc1cccc2c1OC(C)(C)C2)C(C)C [Benfuracarb]  11.9 min
8. CNC(C)C1CCC(N)C(OC2C(N)CC(N)C(OC3OCC(C)(O)C(NC)C3O)C2O)O1 (stereo unspecified) [Gentamycin]  11.6 min
9. O=C(c1cccc2ccccc12)c1cn(CCCCCF)c2ccccc12 [AM-2201]  11.2 min
10. O=C(Oc1cccc2cccnc12)c1cn(Cc2ccc(F)cc2)c2ccccc12 [FUB-PB-22]  11.1 min
11. CCCC1COC(Cn2cncn2)(c2ccc(Cl)cc2Cl)O1 (stereo unspecified) [Propiconazole]  11 min
12. C=C(c1ccccc1OCc1cccc(Cl)c1)n1ccnc1 [Croconazole]  10.7 min
13. CC(=O)C1CCC2C3C=CC4=CC(=O)CCC4(C)C3CCC12C (stereo unspecified) [Dydrogesterone]  10.7 min
14. CC12CC1(C)C(=O)N(c1cc(Cl)cc(Cl)c1)C2=O (stereo unspecified) [Procymidone]  10.2 min
15. c1ccc(Nc2ccccc2)cc1 [Diphenylamine]  10.1 min
16. CC(C1CC1)C(O)(Cn1cncn1)c1ccc(Cl)cc1 (stereo unspecified) [Cyproconazole]  9.89 min
17. CSC(=O)c1cccc2nnsc12 [Acibenzolar-S-Methyl]  9.65 min
18. CSc1ccc2c(c1)N(CCC1CCCCN1C)c1ccccc1S2 (stereo unspecified) [Thioridazine]  9.34 min
19. CCOC(=O)c1ccccc1S(=O)(=O)NC(=O)Nc1nc(Cl)cc(OC)n1 [Chlorimuronethyl]  9.3 min
20. CCCSc1ccc2nc(NC(=O)OC)[nH]c2c1 [Albendazole]  9.19 min
21. Cc1c(Nc2ncccc2C(=O)O)cccc1C(F)(F)F [Flunixin]  9.09 min
22. C=CCOC(Cn1ccnc1)c1ccc(Cl)cc1Cl (stereo unspecified) [Imazalil]  9.09 min
23. CCOC(=O)C(CCc1ccccc1)NC(C)C(=O)N1Cc2ccccc2CC1C(=O)O (stereo unspecified) [Quinapril]  9.03 min
24. CC(C)C(NC(=O)c1cn(CCCCCF)c2ccccc12)C(N)=O (stereo unspecified) [ABICA-5F]  8.93 min
25. COc1ccc(CNc2nc(N3CCCC3CO)ncc2C(=O)NCc2ncccn2)cc1Cl (stereo unspecified) [Avanafil]  8.76 min
26. CC12CCC(=O)C=C1CCC1C2C(O)CC2(C)C(C(=O)CO)CCC12 (stereo unspecified) [Corticosterone]  8.74 min
27. O=CNC(N1CCN(C(NC=O)C(Cl)(Cl)Cl)CC1)C(Cl)(Cl)Cl (stereo unspecified) [Triforine]  8.65 min
28. CN1CCCCC(n2cc(C(=O)c3cccc4ccccc34)c3ccccc32)C1 (stereo unspecified) [AM-1220-Azepane]  8.61 min
29. Cc1ccsc1C(=CCCN1CCCC(C(=O)O)C1)c1sccc1C (stereo unspecified) [Tiagabine]  8.43 min
30. CN1CCN(CCC=C2c3ccccc3Sc3ccc(S(=O)(=O)N(C)C)cc32)CC1 [Thiothixene]  8.38 min
31. N#CC(CCN1CCC(C(N)=O)(N2CCCCC2)CC1)(c1ccccc1)c1ccccc1 [Piritramide]  8.19 min
32. CCC(=O)C(CC(C)N(C)C)(c1ccccc1)c1ccccc1 (stereo unspecified) [Methadone]  8.04 min
33. COC12CCC3(CC1C(C)(O)C(C)(C)C)C1Cc4ccc(O)c5c4C3(CCN1CC1CC1)C2O5 (stereo unspecified) [Buprenorphine (BN)]  7.96 min
34. NN1CC(=O)N2C(Cc3c([nH]c4ccccc34)C2c2ccc3c(c2)OCO3)C1=O (stereo unspecified) [Tadalafil-Amino]  7.84 min
35. CCCCc1c(C)nc(N(C)C)[nH]c1=O [Dimethirimol]  7.7 min
36. CCC(=O)C(CCN(C)C)(c1ccccc1)c1ccccc1 [Methadone-Nor]  7.68 min
37. CN(C)CCC=C1c2ccccc2CSc2ccccc21 [Dosulepin]  7.61 min
38. CCc1cccc(C)c1N(C(=O)CS(=O)(=O)O)C(C)COC (stereo unspecified) [Metolachlor-ESA]  7.34 min
39. CN1CCN(C2=Nc3cc(Cl)ccc3Nc3ccccc32)CC1 [Clozapine]  7.19 min
40. COc1ccc(C2Sc3ccccc3N(CCN(C)C)C(=O)C2OC(C)=O)cc1 (stereo unspecified) [Diltiazem]  7.18 min
41. COC(=O)CSP(=S)(OC)OC  7.16 min
42. O=C(CCCN1CCC(O)(c2ccc(Br)cc2)CC1)c1ccc(F)cc1 [Bromperidol]  7.12 min
43. O=C1OC(c2ccc(O)cc2)(c2ccc(O)cc2)c2ccccc21 [Phenolphthalein]  7.06 min
44. CCC1OC(=O)CC(O)C(C)C(OC2OC(C)C(O)C(N(C)C)C2O)C(CCN2CC(C)CC(C)C2)CC(C)C(=O)C=CC(C)=CC1COC1OC(C)C(O)C(OC)C1OC (stereo unspecified) [Tilmicosin]  6.69 min
45. CCOc1cc(NC(C)=O)ccc1C(=O)OC [Ethopabate]  6.63 min
46. CCCC1C(=O)N2C(N(C)C)=Nc3ccc(C)cc3N2C1=O (stereo unspecified) [Azapropazone]  6.54 min
47. Cln1nnc2ccccc21 [Benzotriazole-chloro]  6.53 min
48. CCc1cc(OC)c(CCN)cc1OC [2C-E]  6.48 min
49. O=C(NCC1CCCCN1)c1cc(OCC(F)(F)F)ccc1OCC(F)(F)F (stereo unspecified) [Flecainide]  6.44 min
50. COC(=O)c1ccccc1S(=O)(=O)NC(=O)Nc1nc(C)nc(OC)n1 [Metsulfuron-methyl]  6.31 min
51. CCCN1CC(CSC)CC2c3cccc4[nH]cc(c34)CC21 (stereo unspecified) [Pergolide]  6.19 min
52. OC(c1ccccc1)(c1ccccc1)C1CCNCC1 [Azacyclonol]  6.19 min
53. COc1ccc(C(CN(C)C)C2(O)CCCCC2)cc1 (stereo unspecified) [Venlafaxine]  6.14 min
54. CN1C(=O)CCS(=O)(=O)C1c1ccc(Cl)cc1 (stereo unspecified) [Chlormezanone]  5.94 min
55. CC(=O)NCC1CN(c2ccc(N3CCOCC3)c(F)c2)C(=O)O1 (stereo unspecified) [Linezolid]  5.56 min
56. COc1cc(CCN)c(OC)cc1Br [2C-B]  5.56 min
57. COc1ccc2c(c1)[nH]c1c(C)nccc12 [Harmine]  5.34 min
58. CNCC1CCCCC1(O)c1cccc(OC)c1 (stereo unspecified) [Tramadol-Nor (Tramadol-N-desmethyl)]  5.3 min
59. CC(COc1ccccc1)NC(C)C(O)c1ccc(O)cc1 (stereo unspecified) [Isoxsuprine]  5.28 min
60. CCCN(CCC)CCc1c[nH]c2ccccc12 [DPT]  5.26 min
61. CCCN1CC(NS(=O)(=O)N(CC)CC)CC2Cc3c(O)cccc3CC21 (stereo unspecified) [Quinagolide]  5.24 min
62. CCc1cccc(C)c1NC(=O)CS(=O)(=O)O  5.24 min
63. CCCC(C(=O)c1ccc2c(c1)OCO2)N1CCCC1 (stereo unspecified) [MDPV]  5.18 min
64. Cc1cccc(CC(C)N)c1 (stereo unspecified) [Amphetamine-3-methyl]  5.17 min
65. CN1C2CCC1CC(OC(=O)c1c[nH]c3ccccc13)C2 (stereo unspecified) [Tropisetron]  5.09 min
66. Cc1cccc(C)c1N(Cn1cccn1)C(=O)C(=O)O [Metazachlor OA]  5.09 min
67. OC(Cn1cncn1)(Cn1cncn1)c1ccc(F)cc1F [Fluconazole]  5.06 min
68. C[N+]1(CCC(O)(c2ccccc2)c2cccs2)CCOCC1 (stereo unspecified) [Tiemonium]  5.06 min
69. Cc1nccn1CC1CCc2c(c3ccccc3n2C)C1=O (stereo unspecified) [Ondansetron]  4.98 min
70. CC(N)Cc1ccc2occc2c1 (stereo unspecified) [5-(2-aminopropyl)benzofuran (5-APB)]  4.79 min
71. CN(C)CC(c1ccc(O)cc1)C1(O)CCCCC1 (stereo unspecified) [Venlafaxine-O-Desmethyl (Desvenlafaxine)]  4.76 min
72. COc1ccc2c3c1OC1C(OC(C)=O)=CCC4C(C2)N(C)CCC314 (stereo unspecified) [Thebacon]  4.47 min
73. CC(=O)N=c1sc(S(N)(=O)=O)nn1C [Methazolamide]  4.28 min
74. CN1COCN(Cc2cnc(Cl)s2)C1=N[N+](=O)[O-] [Thiamethoxam]  4.25 min
75. Nc1ccc(S(=O)(=O)c2ccc(N)cc2)cc1 [Dapsone]  4.13 min
76. CN(Cc1cnc2nc(N)nc(N)c2n1)c1ccc(C(=O)NC(CCC(=O)O)C(=O)O)cc1 (stereo unspecified) [Methotrexate]  3.96 min
77. CCNC(C)C(=O)c1ccccc1 (stereo unspecified) [Cathinone-Ethyl]  3.93 min
78. CNC(=O)Oc1ccc2c(c1)C1(C)CCN(C)C1N2C (stereo unspecified) [Physostigmine]  3.89 min
79. NNCCc1ccccc1 [Phenelzine]  3.71 min
80. CC(C)C(O)(C(=O)OCC1=CCN2CCC(O)C12)C(C)O (stereo unspecified) [Lycopsamine]  3.65 min
81. C=CCN1CCC23c4c5ccc(O)c4OC2C(=O)CCC3(O)C1C5 (stereo unspecified) [Naloxone]  3.44 min
82. C=CCN1CCC23c4c5ccc(O)c4OC2C(O)C=CC3C1C5 (stereo unspecified) [Nalorphine]  3.39 min
83. CCN(CC)C(=O)N1CCN(C)CC1 [Carbamazine-Diethyl]  3.16 min
84. CC(N)Cc1ccc(O)cc1 (stereo unspecified) [Amphetamine-P-hydroxy]  2.98 min
85. CCC1C(=O)OCC1Cc1cncn1C (stereo unspecified) [Pilocarpine]  2.74 min
86. N=C(N)c1ccccc1 [Benzamidine]  2.63 min
